Laboratory results published in patent US20240299321A1, “METHODS TO SENSITIZE CANCER CELLS AND STANDARDIZED SCREENING ASSAY FOR IMMUNOTHERAPY” (THE TRUSTEES OF INDIANA UNIVERSITY, priority 2020, published 2024).

Legend:
[1] = system: EO771 cells; test: Gene expression in EO771 cells (RNA-seq, quantitative RT-PCR); assay type: cell-based, mouse
Procedure: Quantitative reverse transcription PCR (RT-PCR): Mouse EO771 cells were treated with and without BML-210 drug for 48 h. Total RNA was isolated from the cells using TRIzol (Ambion, Lot: 260808) and the miRNeasy Mini kit (Qiagen, 157029493, Thermo Scientific). The quality of the RNA was quantified by a Nano Drop 2000 spectrophotometer. A total of 1 μg RNA was reverse transcribed into cDNA using the […] superMix reagent (Quantabio, 66141329). Quantitative PCR was performed using SYBR Green […] low Rox reagent (TaKaRa) on a Quantstudio real-time PCR system (ThermoFisher Scientific). RNA sequencing: Total RNA was extracted from EO771 cells using TRIzol (Ambion) and the miRNeasy Mini kit (Qiagen). The quantity and quality of the RNA was evaluated by an Agilent Bioanalyzer 2100. 100 ng of total RNA from each sample was used, from which ribosomal RNA was removed by the QIAseq FastSelect rRNA Removal HMR Kit (Qiagen). The cDNA library was constructed using the KAPA RNA Hyper Prep Kit (Roche Corporate) and the quality was accessed by the Qubit and Agilent Bioanalyzer. The library pool was sequenced in 100b paired-end read format on NovaSeq 6000 (Illumina) at the Center for Medical Genomics, Indiana University School of Medicine (IUSM). RNA-seq analysis: The reads were mapped to the mouse genome mm10 using STAR (v2.5)65. RNA-seq aligner with the following parameter: “--outSAMmapqUnique 60”. Uniquely mapped sequencing reads were assigned to GENCODE M22 genes using feature Counts (v1.6.2)66 with the following parameters: “-s 2 -p -Q 10”. […] The data were visualized with volcano plot using MATLAB. The gene enrichment analysis on DEGs from the Kyoto Encyclopedia of Genes and Genomes (KEGG) pathway database and Gene Ontology database was performed using the Database for Annotation, Visualization and Integrated Discovery (DAVID) functional analysis69. The analysis was visualized using MATLAB with q value (-log 10) and gene number in each GO and pathway. Gene set enrichment analysis (GSEA) of the antigen processing and presentation pathway was carried out with GSEA software70.

[2] = system: EO771 tumors; test: CyTOF immune profile of EO771 tumors; assay type: in vivo, C57BL/6 mice
Procedure: Animal studies: All animal experiments were performed in accordance with the National Institutes of Health's Animal Use Guidelines and protocols approved by the Animal Care and Use Committee of Indiana University School of Medicine. […] Each mouse was injected with a total of 2×10^5 tumor cells. 5 mice were used in each group. Tumors were measured in two dimensions using a manual caliper. Tumor volume was calculated using the following formula: V=0.5×length×width×width. Tumor volume was measured every 3 days. Tumors were harvested 22 days after injection. The tumor growth, volume and weight were analyzed. To evaluate the anti-tumor effect of drugs in immunocompetent C57BL/6 mice and immunodeficient nude (NU/J) mice, 2×10^5 EO771 cells were orthotopically injected into fat pad of the 4th mammary gland in female mice. […] For CD4/CD8 depletion experiment, the tumor-bearing mice were randomly divided into 7 groups (n=8 mice/group) including isotype control (rat IgG2a, Bioxcell), isotype control+CUDC-101, isotype control+BML-210, anti-CD8 (Clone: 53-6.72, Bioxcell)+CUDC-101, anti-CD8+BML-210, anti-CD4 (Clone: GK1.5, Bioxcell)+CUDC-101, or anti-CD4+BML-210. Intraperitoneal injection of inhibitors (20 mg kg-1) and anti-CD4/CD8 (10 mg kg-1) were administrated to the mice by 3 times/week for 2 weeks. The tumors were harvested at day 18 (NU/J mice) or day 28 (C57BL/6 mice) for further analyses. In immune checkpoint blockade experiment, 2×10^5 EO771 cells were orthotopically injected into fat pad of the 4th mammary gland in female C57BL/6 mice. From day 10, the tumor-bearing mice were randomly divided into each treatment group (n=8 mice/group), and the mice were treated with IgG2a isotype control antibody (clone 2A3, Bioxcell), BML-210 (20 mg kg-1), anti-PD-1 (200 μg/mouse, Bioxcell), or BML-210 and anti-PD-1 combo. The treatment was done 3 times/week for 2 weeks. Tumors were harvested at day 26 post injection and the tumors were analyzed by IHC staining, flow cytometry, ELISA or CyTOF assay. Mass Cytometry (CyTOF): EO771 tumors in C57BL/6 mice were harvested and dissociated into single cells. 1×10^6 single cells from each sample were suspended in ice-cold buffer (PBS with 0.5% BSA and 0.02% Azide). The antibody panel (Table 1) was used for sample staining. Samples were analyzed using the CyTOF 2 Mass Cytometer (Fluidigm). All the samples were done on bead-based normalization before analysis on Cytobank. CyTOF data were analyzed using viSNE analysis64 in the Cytobank platform. The viSNE analysis uses the Barnes-Hut implementation of the t-Distributed Stochastic Neighbor embedding (tSNE) algorithm. The cell populations were visualized on viSNE as an overlay plot.

## Nc1ccccc1NC(=O)CCCCCCC(=O)Nc1ccccc1 [BML-210]
[1]; EO771, BML-210 1.0 μM, FIG. 4A
  expression of antigen processing and presentation DEGs (qPCR): most of DEGs had higher expression levels
[1]; RNA-seq
  MHC-I genes (H2-D1, H2-K2, B2M), lysosome gene (Lamp1), endosome gene (Hspa8): induced
  genome-wide gene expression profile (GO enrichment): upregulation of genes particularly enriched in lysosome, phagosome, antigen processing and presentation pathways
[2]; CD11b+Ly6G+Ly6ClowF4/80−
  infiltration of PMN-MDSCs: decreased infiltration
[2]; CD11b+Ly6G-Ly6C+F4/80−
  Mo-MDSCs: increased
[2]; mouse, in vivo
  tumor-associated macrophage (TAM M1 and TAM M2) populations: No significant differences
[2]; tumors 26 days post implantation
  infiltration of immune lymphocytes, particularly CD8+ T effector cells and NK cells: notably enhanced infiltration
